Consider two compounds from patent US7601673B2 (priority 2004, dated 2009).

The test deals with Phytophthora infestans. The class given is in vivo, Phytophthora infestans on tomato plants. Conditions: individual active compound, tomato leaves, protective, rated after 6 days.

Where two headings read alike, the source gives them in different places.

On to `Cc1c(Br)c2ccc(F)cc2n1S(=O)(=O)c1ncn(S(=O)(=O)N(C)C)n1` [I-62, Tab.7 (IA), N,N-dimethyl-3-(3-bromo-6-fluoro-2-methylindole-1-sulfonyl)-[1,2,4]triazole-1-sulfonamide], for which the “Efficacy in % of the untreated control” value (1 ppm in the spray liquor) is listed as 56%.
As to `CC1CCN(c2c(-c3c(F)cc(F)cc3F)c(Cl)nc3ncnn23)CC1` [II, 5-chloro-7-(4-methylpiperidin-1-yl)-6-(2,4,6-trifluorophenyl)-[1,2,4]triazolo[1,5-a]pyrimidine], the “Efficacy in % of the untreated control” value reads like this: (0.25 ppm in the spray liquor) 0%; (1 ppm in the spray liquor) 0%; (4 ppm in the spray liquor) 0%.
